# Experimental data: patent publication US12414960B2, “Analogues of oleuropein and oleacein and uses thereof” (Attica Sciences Ltd., priority 2020, dated 2025)
# “Also recorded” adds a separate entry of the source.
# Key:
# [1] = Ferric reducing antioxidant power (FRAP) assay; assay type: biochemical; conditions: NS = not statistically significant
# Excerpt: Reducing power is associated with antioxidant activity and may serve as a significant reflection of the antioxidant activity. Compounds with reducing power indicate that they are electron donors and can reduce the oxidized intermediates of lipid peroxidation processes, so that they can act as primary and secondary antioxidants.
# In this assay, the yellow color of the test solution changes to various shades of green and blue depending on the reducing power of each compound. Presence of reducers causes the conversion of the Fe3+/ferricyanide complex used in this method to the ferrous form which when it reacts with iron chloride it gives a complex which absorbs at 700 nm. The higher the absorption at 700 nm, the greater the reducing capacity (FIG. 6).
# The ferric reducing antioxidant capacity of the GS compounds was investigated by using the potassium ferricyanide-ferric chloride method (Tundis, Rosa et al. LWT—Food Science and Technology, 2013, 53: 370-377). Briefly, 0.2 mL of each of the GS compounds, 2.5 mL of phosphate buffer (0.2 M, pH 6.6), and 2.5 mL of potassium ferricyanide K3Fe(CN)6 (1%) were mixed and incubated at 50° C. for 20 min, to reduce ferricyanide into ferrocyanide. The reaction was stopped by adding 2.5 mL of 10% (w/v) trichloroacetic acid followed by centrifugation at 1000 rpm for 10 min. Finally, 2.5 mL of the upper layer was mixed with 2.5 mL of distilled water and 0.5 mL of FeCl3 (0.1%) and the absorbance was measured at 700 nm.
# topoisomerase Type I = test: Plasmid relaxation assay; assay type: biochemical; conditions: NS = not statistically significant
# Excerpt: Topoisomerases are nuclear enzymes that play essential roles in DNA replication, transcription, chromosome segregation, and recombination. Type I topoisomerases (classified into three distinct subfamilies—Type IA, IB, and IC based on structural considerations) are enzymes which make single-stranded cuts in DNA. DNA topoisomerases are important targets of approved and experimental anti-cancer agents. The protocol described here are of assays used to assess the ability of GS compounds to inhibit topoisomerase Type I activity based on relaxation of supercoiled DNA.
# Plasmid DNA is a circular double-stranded DNA molecule that is mainly found in bacteria and has the ability to self-replicate on its own. Bacteria may have one or more copies of plasmid DNA that help them survive adverse conditions, as they usually carry antibiotic resistance genes. Even with the help of plasmids being transferred from bacterium to bacterium, it is possible to transfer information that contributes to their survival.
# When plasmid DNA runs in an electrophoresis gel it appears mainly in three configurations: (1) The supercoiled conformation, in which the plasmid is intact (without fractures), is its most compact form; (2) The open circular, relaxed conformation, to which it goes when single-stranded fractures are caused. This is caused either from enzymatic or other factors (e.g., free radicals) that have the ability to cause DNA breakage; (3) The linear configuration to which it goes when it has double-stranded fractures. These configurations run at different speeds in an electrophoresis gel. The smaller the configuration, the faster it penetrates the agarose pores. […]
# The ability of GS compounds to inhibit topoisomerase Type I activity was assessed based on the relaxation of supercoiled DNA as previously described (Kouka, Paraskevi et al., Oxid Med Cell Longev. 2019, Article ID 1870965). […] Finally, the gels were exposed to UV, the MultiImage Light Cabinet (Alpha Innotech, San Leandro, CA, USA) was used to capture the gel photos, and the results were analyzed with the Alpha View suite. […]
# pACLY (S455) = test: ELISA of pACLY (S455) / ACLY enzymatic activity in PANC-1 cells; assay type: cell-based, human; conditions: 5 μM
# Method: ELISA assay was used to evaluate the effect of GS compounds on protein activity levels in PANC-1 cancer cells. PANC-1 cells were serum-starved overnight and then treated with rIGF1 (100 ng/mL) for 24 hours, with or without GS27 (5 μM). The levels of the following proteins were evaluated by ELISA assay: a) p70 S6 (T389) (cat no. 54164C, Cell Signaling); b) pAKT (S473), (cat no. 80895, Cell Signaling); c) pACLY (S455), (cat no. okag1672, Avivasysbio); d) pAMPK (T172) (cat no. 7959C, Cell Signaling) and e) p65/NFKB (S536), (cat no. 7173, Cell Signaling).
# PANC-1 is a human pancreatic ductal adenocarcinoma cell line derived from the carcinoma of a person.
# The molecular mechanism of action of GS27, a compound that has exerted potent anti-cancer activity in different cancer cell lines including pancreatic cancer cells, was investigated. Oleacein has been implicated to have anti-inflammatory and metabolic effects, thus the potential effects of GS27 in different metabolic and inflammatory pathways were evaluated. Specifically, the protein levels of p70 S6 (T389), pAKT (S473), pACLY (S455), pAMPK (T172) and p65/NFKB (S536) were evaluated by ELISA assay in PANC-1 pancreatic cancer cells treated with 5 μM GS27. GS27 reduced p70 S6 and AKT phosphorylation levels, while it increased AMPK phosphorylation.
# The effects of different GS compounds on ACLY enzymatic activity were evaluated by ELISA assay in PANC-1 pancreatic cancer cells. […] This finding is unexpected, since GS21 has a very similar structure with GS27, with the only difference being the presence of an oxygen atom in ester GS21 instead of a sulfur atom in thioester GS27.
Plasmid Relaxation Assay IC50 (topoisomerase Type I),SMILES,Ferric Reducing Power Antioxidant Assay RP0.5AU [1],ACLY enzymatic activity (ELISA) (pACLY (S455))
5.94 μg extract/mL,"C/C=C1/[C@H](OC2OC(CO)C(O)C(O)C2O)OC=C(C(=O)O)[C@H]1CC(=O)OCCc1ccc(O)c(O)c1 (stereo in doubt) [GS6, (2S,4S,E)-4-(2-(3,4-dihydroxyphenethoxy)-2-oxoethyl)-3-ethylidene-2{[(2R,3S,4R,5R,6S)-3,4,5-trihydroxy-6-(hydroxymethyl)tetrahydro-2H-pyran-2-yl]oxy}-3,4dihydro-2H-pyran-5-carboxylic acid]",36 μg extract/mL,
9.91 μg extract/mL,"C/C=C1/[C@H](O[C@@H]2O[C@H](CO)[C@@H](O)[C@H](O)[C@H]2O)OC=C(C(=O)OC)[C@H]1CC(=O)OCCc1ccc(O)c(O)c1 [GS1, oleuropein]",35 μg extract/mL,
9.5 μg extract/mL,"C/C=C(/C=O)[C@@H](CC=O)CC(=O)OCCc1ccc(O)c(O)c1 [GS17, (3S,4E)-4-formyl-3-(2-oxoethyl)-4-hexenoic acid 2-(3,4-dihydroxyphenyl)ethyl ester, reference compound]",4.48 μg extract/mL,
,"C/C=C(/C=O)[C@@H](CC=O)CC(=O)OCCc1ccc(O)cc1 [GS19, (3S,4E)-4-formyl-3-(2-oxoethyl)-4-hexenoic acid 2-(4-hydroxyphenyl)ethyl ester, reference compound]",133 μg extract/mL,
,"C/C=C(/C=O)[C@@H](CC=O)CC(=O)OCCOc1ccccc1 [GS24, (3S,4E)-4-formyl-3-(2-oxoethyl)-4-hexenoic acid 2-phenoxyethyl ester]",,small effect
,"C/C=C(/C=O)[C@@H](CC=O)CC(=O)OCCCCCCCCCCCCCCCC [GS26, (3S,4E)-4-formyl-3-(2-oxoethyl)-4-hexenoic acid hexadecyl ester]",,did not show any effect
,"C/C=C(/C=O)[C@@H](CC=O)CC(=O)SCCc1ccccc1 [GS27, S-phenethyl (3S,4E)-4-formyl-3-(2-oxoethyl)hex-4-enethioate]",,dramatic effect on reducing; also recorded: substantially reducing
,"C/C=C(/C=O)[C@@H](CC=O)CC(=O)OCCCSC [GS28, (3S,4E)-4-formyl-3-(2-oxoethyl)-4-hexenoic acid 3-(methylthio)propyl ester]",,did not show any effect
